The record followed here is US20080299140A1, “Immunogenic Composition and Peptide Sequences for Prevention and Treatment of an Hsv Condition” (priority 2002, published 2008).

Where a chain is given by its changes, count along the chain named.

Assay [1] concerns HLA-DR and HLA-DP molecules. Kind of assay: MHC class II binding assays, panel of twelve HLA class II molecules (number of alleles bound). The conditions noted are these: number of the twelve class II MHC alleles bound; title: Threshold 600 nM/5 alleles.
In assay [2] the target is T1, DRB5=HLA-DR(α1*0101,α5*0101) (Homo sapiens, UniProt P01903+Q30154).
T1 construct: endogenous in cells; host or cells: EBV homozygous human B cell line
Kind of assay: biochemical. The assay is classed as binding. The conditions noted are these: Table V; […]; read-out: IC50 DRB5.

Assay [3] addresses T2, DP401=HLA-DP(α1*0101,α1*0401) (Homo sapiens, UniProt P04440+P20036).
T2 sequence (P20036 32-260 limits assumed): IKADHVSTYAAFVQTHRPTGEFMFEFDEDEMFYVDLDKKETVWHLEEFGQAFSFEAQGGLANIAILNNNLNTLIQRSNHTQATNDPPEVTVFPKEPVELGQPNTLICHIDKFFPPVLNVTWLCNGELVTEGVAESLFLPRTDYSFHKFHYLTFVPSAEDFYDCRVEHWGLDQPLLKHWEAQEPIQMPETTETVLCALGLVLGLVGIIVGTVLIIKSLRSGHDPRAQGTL
T2 sequence (P04440 30-258): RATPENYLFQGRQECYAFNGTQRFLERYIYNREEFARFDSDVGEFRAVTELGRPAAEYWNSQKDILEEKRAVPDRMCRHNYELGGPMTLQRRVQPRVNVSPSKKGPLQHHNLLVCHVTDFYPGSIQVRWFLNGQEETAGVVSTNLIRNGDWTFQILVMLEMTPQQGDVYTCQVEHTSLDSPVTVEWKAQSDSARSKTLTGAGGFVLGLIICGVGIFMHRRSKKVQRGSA
Kind of assay: biochemical. In kind it is binding. The conditions noted are these: Table V; […].

The target in assay [4] is T3, DR11=HLA-DR(α1*0101,α1*1101) (Homo sapiens, UniProt P01903+P01911, A100R/A169T/A87E/I96F/K41T/L162R/M171V/P40S/Q125H/Q178H/Q39Y/Q99D/R42S/S66Y/T262R/V115G/W38E).
T3 construct: endogenous in cells; host or cells: SWEIG (EBV homozygous B cell line)
Put plainly: biochemical. In kind it is binding. To be noted: Table V; […]; read-out: IC50 DR11.

Assay [5] deals with T4, DR4=HLA-DR(α1*0101,α1*0401) (Homo sapiens, UniProt P01903+P01911, A100K/A169T/F76Y/I96L/K127E/L162R/M171V/N62H/P40V/Q125Y/R42H/S133A/S149N/S66Y/V115G/V209L/W38E).
T4 construct: endogenous in cells; host or cells: BOLETH (EBV homozygous B cell line)
Put plainly: biochemical. The conditions noted are these: Table V; […]; read-out: IC50 DR4. In kind it is binding.

The target in assay [6] is T5, DRB3=HLA-DR(α1*0101,α3*0101) (Homo sapiens, UniProt P01903+P79483).
T5 construct: endogenous in cells; host or cells: STEILIN or 0206AD (both typed DRB3*0101)
Kind of assay: HLA-DR specific binding assay, DRB3 (DR52). The conditions noted are these: IC50 DRB3, Table V; […].

Assay [7] has as its target T6, DRB4=HLA-DR(α1*0101,α4*0101) (Homo sapiens, UniProt P01903+P13762, G164S).
T6 construct: endogenous in cells
Kind of assay: HLA-DR specific binding assay, DRB4 (DR53).

Assay [8] has as its target T7, DR3=HLA-DR(α1*0101,α1*0301) (Homo sapiens, UniProt P01903+P01911, A100K/A102G/A103R/A169T/F55Y/I96L/K41T/L162R/M171V/P40S/Q125H/Q178H/Q39Y/R42S/S66N/T106N/T262R/W38E/Y61H).
T7 construct: endogenous in cells; host or cells: STEILIN (EBV homozygous B cell line)
Put plainly: HLA-DR specific binding assay, DR3. The conditions noted are these: IC50 DR3, Table V; […].

Assay [9] has as its target T8, DR1=HLA-DR(α1*0101,α1*0101) (Homo sapiens, UniProt P01903+P01911, A100R/D57E/F55L/F60I/F76Y/I96L/L162R/M171V/P40L/Q125E/R42F/V115G/Y59C).
T8 construct: endogenous in cells; host or cells: EBV homozygous human B cell line
Put plainly: biochemical. In kind it is binding. The conditions noted are these: IC50 DR1.

Assay [10] addresses T9, DR15=HLA-DR(α1*0101,α1*1501) (Homo sapiens, UniProt P01903+P01911).
T9 construct: endogenous in cells; host or cells: EBV homozygous human B cell line
Kind of assay: HLA-DR specific binding assay, DR15.

Assay [11] concerns the target T10, DR13=HLA-DR(α1*0101,α1*1301) (Homo sapiens, UniProt P01903+P01911, A100E/A169T/K41T/L162R/M171V/P40S/Q125H/Q178H/Q39Y/Q99D/R42S/S66N/T262R/W38E/Y61H).
T10 construct: endogenous in cells; host or cells: 0206AD (EBV homozygous B cell line)
Put plainly: HLA-DR specific binding assay, DR13.

Assay [12] deals with T11, DR7=HLA-DR(α1*0101,α1*0701) (Homo sapiens, UniProt P01903+P01911, A100R/A102G/A103Q/D57E/D86V/E43K/F76Y/K127E/L162R/M171V/P40G/Q125H/Q99D/R33Q/R42Y/R54Q/S133A/S66F/T210M/V115G/Y107V/Y59L/Y89S).
T11 construct: endogenous in cells; host or cells: EBV homozygous human B cell line
Kind of assay: HLA-DR specific binding assay, DR7.

The target in assay [13] is T12, DP402 DP (α1*0101, α1*0402) (Homo sapiens, UniProt P04440+P20036, A65V/A84D/A85E/L207M).
T12 sequence (P20036 29-260): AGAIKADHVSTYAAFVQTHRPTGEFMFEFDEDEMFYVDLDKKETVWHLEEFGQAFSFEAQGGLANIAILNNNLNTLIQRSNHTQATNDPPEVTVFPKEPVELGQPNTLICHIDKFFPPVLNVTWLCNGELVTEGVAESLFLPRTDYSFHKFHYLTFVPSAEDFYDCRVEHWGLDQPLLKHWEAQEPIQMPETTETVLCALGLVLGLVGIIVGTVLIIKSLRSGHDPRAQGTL
T12 sequence (P04440 30-258 A65V/A84D/A85E): T2 sequence (P04440 30-258) with A36V, A55D, A56E
Put plainly: biochemical. The assay is classed as binding. To be noted: Table V; […].

As a reminder, the IC50 is the concentration that inhibits the measured activity by half.

T1 sequence (Q30154 30-266, other chains not shown): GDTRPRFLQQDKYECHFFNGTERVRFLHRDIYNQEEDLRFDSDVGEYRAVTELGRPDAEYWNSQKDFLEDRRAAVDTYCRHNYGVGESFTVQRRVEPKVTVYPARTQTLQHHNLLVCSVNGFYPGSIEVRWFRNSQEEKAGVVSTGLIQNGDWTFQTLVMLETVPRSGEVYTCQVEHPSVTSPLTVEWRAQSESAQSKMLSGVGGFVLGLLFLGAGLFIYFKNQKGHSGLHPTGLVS
T5 sequence (P79483 30-266, other chains not shown): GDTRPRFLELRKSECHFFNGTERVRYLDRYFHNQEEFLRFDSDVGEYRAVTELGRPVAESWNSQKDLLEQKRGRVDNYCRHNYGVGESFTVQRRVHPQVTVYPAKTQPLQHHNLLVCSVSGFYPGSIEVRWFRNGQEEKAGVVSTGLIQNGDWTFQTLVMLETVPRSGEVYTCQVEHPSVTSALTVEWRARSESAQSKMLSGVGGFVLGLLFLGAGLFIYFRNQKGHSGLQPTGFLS

`CC[C@H](C)[C@H](N)C(=O)N[C@H](C(=O)N[C@@H](CCC(N)=O)C(=O)N[C@@H](Cc1ccccc1)C(=O)N[C@H](C(=O)N[C@@H](CC(C)C)C(=O)N[C@@H](CCC(=O)O)C(=O)N[C@@H](Cc1c[nH]cn1)C(=O)N[C@@H](CCCNC(=N)N)C(=O)N[C@@H](C)C(=O)N[C@@H](CCCCN)C(=O)NCC(=O)N[C@@H](CO)C(=O)N[C@@H](CS)C(=O)N[C@@H](CCCCN)C(=O)N[C@@H](Cc1ccc(O)cc1)C(=O)N[C@@H](C)C(=O)N[C@@H](CC(C)C)C(=O)N1CCC[C@H]1C(=O)N[C@@H](CC(C)C)C(=O)N[C@@H](CCCNC(=N)N)C(=O)N[C@H](C(=O)N1CCC[C@H]1C(=O)N1CCC[C@H]1C(=O)N[C@@H](CO)C(=O)N[C@@H](C)C(=O)N[C@@H](CS)C(=O)N[C@@H](CC(C)C)C(=O)N[C@@H](CO)C(=O)N1CCC[C@H]1C(=O)N[C@@H](CCC(N)=O)C(=O)O)[C@@H](C)CC)[C@@H](C)CC)[C@@H](C)O` [HSV 38] showed a Range in assay [1] of 8.
As to `CC[C@H](C)[C@H](NC(=O)[C@H](CCCCN)NC(=O)[C@@H](NC(=O)[C@H](CC(C)C)NC(=O)[C@H](CCCNC(=N)N)NC(=O)[C@H](CC(C)C)NC(=O)[C@H](Cc1ccc(O)cc1)NC(=O)[C@@H](NC(=O)CNC(=O)[C@H](C)NC(=O)[C@@H](NC(=O)[C@H](CCC(=O)O)NC(=O)[C@H](Cc1ccccc1)NC(=O)[C@H](C)NC(=O)[C@@H]1CCCN1C(=O)[C@H](C)NC(=O)[C@H](Cc1c[nH]cn1)NC(=O)[C@H](CCSC)NC(=O)[C@H](CC(C)C)NC(=O)[C@H](Cc1ccccc1)NC(=O)CNC(=O)[C@H](CC(C)C)NC(=O)[C@H](CC(N)=O)NC(=O)[C@H](CC(=O)O)NC(=O)[C@@H](N)CCC(=O)O)[C@@H](C)O)[C@@H](C)O)C(C)C)C(=O)N[C@@H](CC(N)=O)C(=O)N[C@@H](CC(=O)O)C(=O)N[C@@H](Cc1c[nH]c2ccccc12)C(=O)N[C@H](C(=O)N[C@@H](CCC(=O)O)C(=O)N[C@H](C(=O)N[C@H](C(=O)N[C@@H](CCC(N)=O)C(=O)N[C@@H](Cc1ccccc1)C(=O)O)[C@@H](C)O)[C@@H](C)CC)[C@@H](C)O` [HSV 34], the IC50 turned out to be 85 nM in [2]; 115 nM in assay [3]; 175 nM in assay [4]; 632 nM in [5]; 2020 nM in [6]; 743 nM in assay [7]. For the same molecule, the IC50 in [8] is 10.2 µM; in assay [9], 40 nM; in assay [10], 35 nM; in [11], more than 100 µM; in [12], 316 nM; in [13] it was 164 nM.
